The values below are quoted from earlier work in patent EP0682945B1, “Oral sustained release preparation” (Lannacher Heilmittel Ges.m.b.H., priority 1994, dated 1995).

For the series the following is noted: orale Anwendung, im Mittel.

For `CN1CC[C@]23c4c5ccc(O)c4O[C@H]2[C@@H](O)C=C[C@H]3[C@H]1C5` [Morphin], the Bioverfügbarkeit was 38%.
